Read-outs that look alike come from different tables or passages of the source.
Columns and labels:
Mcl-1 [1] = biological target: T1, Mcl-1 (Homo sapiens (Human), UniProt Q07820); assay: TR-FRET binding assay, FITC-Bak peptide and MBP-tagged Mcl-1; conditions: read-out: Ki for Inhibition of Mcl-1 by TR-FRET assay
Protocol: Compounds are diluted in DMSO in a 16-point, semilog serial dilution scheme. […] The plate was mixed and incubated for 3 hours at room temperature. […] TR-FRET signal is plotted and IC50 and Ki values are calculated in the same manner as the fluorescence polarization anisotropy based competition assays.

[2] = tested on: H929 human cancer cell lines; assay: Cellular viability / proliferation (Cell TiterGlo, 72 h); format: cell-based
Summary of the method: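 Top dose 50 μM, serially diluted 2-fold, applied one day after seeding (1,000 cells/well, 10% FBS), DMSO below 1%.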

Mcl-1 [3] = biological target: T1, Mcl-1; assay: Fluorescence polarization anisotropy (FPA) competition assay, FITC-Bak or FITC-Bim BH3 peptide; format: binding; conditions: read-out: Ki for Inhibition of Mcl-1 by FPA assay
[4] = Homo sapiens, NCI-H929, 72 h, read-out: GI50 on cellular proliferation of H929 human cancer cell lines, H929 cells, 72 h, Cell TiterGlo, 10% FBS

T1 sequence (Q07820 172-327): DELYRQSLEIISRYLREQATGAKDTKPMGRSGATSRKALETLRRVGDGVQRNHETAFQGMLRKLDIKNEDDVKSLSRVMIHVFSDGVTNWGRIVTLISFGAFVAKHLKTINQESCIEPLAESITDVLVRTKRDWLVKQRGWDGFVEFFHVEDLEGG

| SMILES | Ki (Mcl-1 [1]) [nM] | GI50 [2, 4] [nM] | Ki (Mcl-1 [3]) [nM] | GI50 ([2]; read-out: GI50 on cellular proliferation of H929 human cancer cell lines, H929 cells, 72 h, Cell TiterGlo, 10% FBS) [nM] |
| --- | --- | --- | --- | --- |
| Cc1cc(OCCCc2c3n(c4c(-c5c(C)nn(C)c5C)c(Cl)ccc24)[C@H](C)CN(c2cc(N(C)C(=O)CN4CCCC4)cc4c(C(=O)O)cn(C)c24)C3=O)cc(C)c1Cl [Example 613, (R)-7-(7-chloro-10-(3-(4-chloro-3,5-dimethylphenoxy)propyl)-4-methyl-1-oxo-6-(1,3,5-trimethyl-1H-pyrazol-4-yl)-3,4-dihydropyrazino[1,2-a]indol-2(1H)-yl)-1-methyl-5-(N-methyl-2-(pyrrolidin-1-yl)acetamido)-1H-indole-3-carboxylic acid] | 1.9 |  |  |  |
| Cc1cc(OCCCc2c3n(c4c(-c5c(C)nn(C)c5C)c(Cl)ccc24)[C@H](C)CN(c2cc(NC(=O)CCN4CCN(C)CC4)cc4c(C(=O)O)cn(C)c24)C3=O)cc(C)c1Cl [Example 551, (R)-7-(7-chloro-10-(3-(4-chloro-3,5-dimethylphenoxy)propyl)-4-methyl-1-oxo-6-(1,3,5-trimethyl-1H-pyrazol-4-yl)-3,4-dihydropyrazino[1,2-a]indol-2(1H)-yl)-1-methyl-5(3-(4-methylpiperazin-1-yl)propanamido)-1H-indole-3-carboxylic acid] | 0.3 |  |  |  |
| COCCn1c(C(=O)O)cc2cc(C)cc(N3C[C@@H](C)n4c(c(CCCOc5cc(C)c(Cl)c(C)c5)c5ccc(Cl)c(-c6c(C)nn(C)c6C)c54)C3=O)c21 [Example 710, (P, R)-7-(7-chloro-10-(3-(4-chloro-3,5-dimethylphenoxy)propyl)-4-methyl-1-oxo-6-(1,3,5-trimethyl-1H-pyrazol-4-yl)-3,4-dihydropyrazino[1,2-a]indol-2(1H)-yl)-1-(2-methoxyethyl)-5-methyl-1H-indole-2-carboxylic acid] | < 0.2 |  |  |  |
| Cc1cc(OCCCc2c3n(c4c(-c5c(C)nn(C)c5C)c(Cl)ccc24)[C@H](C)CN(c2cc(NC(=O)CN4CCN(C)CC4)cc4c(C(=O)O)cn(C)c24)C3=O)cc(C)c1Cl [Example 554, (R)-7-(7-chloro-10-(3-(4-chloro-3,5-dimethylphenoxy)propyl)-4-methyl-1-oxo-6-(1,3,5-trimethyl-1H-pyrazol-4-yl)-3,4-dihydropyrazino[1,2-a]indol-2(1H)-yl)-1-methyl-5-(2-(4-methylpiperazin-1-yl)acetamido)-1H-indole-3-carboxylic acid] | 0.26 |  |  |  |
| Cc1cc(N2C[C@@H](C)n3c(c(CCCOc4cc(C)c(Cl)c(C)c4)c4ccc(Cl)c(-c5c(C)nn(C)c5C)c43)C2=O)c2c(c1)cc(C(=O)O)n2Cc1ccccn1 [Example 714, (P, R)-7-(7-chloro-10-(3-(4-chloro-3,5-dimethylphenoxy)propyl)-4-methyl-1-oxo-6-(1,3,5-trimethyl-1H-pyrazol-4-yl)-3,4-dihydropyrazino[1,2-a]indol-2(1H)-yl)-5-methyl-1-(pyridin-2-ylmethyl)-1H-indole-2-carboxylic acid] | < 0.2 |  |  |  |
| Cc1cc(OCCCc2c3n(c4c(-c5c(C)nn(C)c5C)c(Cl)ccc24)[C@H](C)CN(c2ccc4ccc(C(=O)O)nc4c2)C3=O)cc(C)c1Cl [Example 666, (R)-7-(7-chloro-10-(3-(4-chloro-3,5-dimethylphenoxy)propyl)-4-methyl-1-oxo-6-(1,3,5-trimethyl-1H-pyrazol-4-yl)-3,4-dihydropyrazino[1,2-a]indol-2(1H)-yl)quinoline-2-carboxylic acid] | 7.2 |  |  |  |
| COCCOc1cc(N2C[C@@H](C)n3c(c(CCCOc4cc(C)c(Cl)c(C)c4)c4ccc(Cl)c(-c5c(C)nn(C)c5C)c43)C2=O)c2c(c1)cc(C(=O)O)n2C [Example 711, (M, R)-7-(7-chloro-10-(3-(4-chloro-3,5-dimethylphenoxy)propyl)-4-methyl-1-oxo-6-(1,3,5-trimethyl-1H-pyrazol-4-yl)-3,4-dihydropyrazino[1,2-a]indol-2(1H)-yl)-5-(2-methoxyethoxy)-1-methyl-1H-indole-2-carboxylic acid] | < 0.2 |  |  |  |
| COCCn1c(C(=O)O)cc2cc(C)cc(N3C[C@@H](C)n4c(c(CCCOc5cc(C)c(Cl)c(C)c5)c5ccc(Cl)c(-c6c(C)nn(C)c6C)c54)C3=O)c21 [Example 709, (M, R)-7-(7-chloro-10-(3-(4-chloro-3,5-dimethylphenoxy)propyl)-4-methyl-1-oxo-6-(1,3,5-trimethyl-1H-pyrazol-4-yl)-3,4-dihydropyrazino[1,2-a]indol-2(1H)-yl)-1-(2-methoxyethyl)-5-methyl-1H-indole-2-carboxylic acid] | < 0.2 |  |  |  |
| COCCn1c(C(=O)O)cc2cccc(N3C[C@@H](C)n4c(c(CCCOc5cc(C)c(Cl)c(C)c5)c5ccc(Cl)c(-c6c(C)nn(C)c6C)c54)C3=O)c21 [Example 256, 7-[(4R)-7-chloro-10-[3-(4-chloro-3,5-dimethyl-phenoxy)propyl]-4-methyl-1-oxo-6-(1,3,5-trimethylpyrazol-4-yl)-3,4-dihydropyrazino[1,2-a]indol-2-yl]-1-(2-methoxyethyl)indole-2-carboxylic acid] |  | 270 | < 1 |  |
| Cc1cc(OCCCc2c3n(c4c(-c5c(C)nn(C)c5C)c(Cl)ccc24)[C@H](C)CN(c2cccc4cc(C(N)=O)n(C)c24)C3=O)cc(C)c1Cl [Example 270, 7-[(4R)-7-chloro-10-[3-(4-chloro-3,5-dimethyl-phenoxy)propyl]-4-methyl-1-oxo-6-(1,3,5-trimethylpyrazol-4-yl)-3,4-dihydropyrazino[1,2-a]indol-2-yl]-1-methyl-indole-2-carboxamide] |  |  | 1.1 | 310 |
| Cc1cc(OCCCc2c3n(c4c(-c5c(C)nc(CN(C)CCN(C)C)nc5C)c(Cl)ccc24)[C@H](C)CN(c2cn(C)c4ccc(C(=O)O)cc24)C3=O)cc(C)c1Cl [Example 448, (R)-3-(7-Chloro-10-(3-(4-chloro-3,5-dimethylphenoxy)propyl)-6-(2-(((2-(dimethylamino)ethyl)(methyl)amino)methyl)-4,6-dimethylpyrimidin-5-yl)-4-methyl-1-oxo-3,4-dihydropyrazino[1,2-a]indol-2(1H)-yl)-1-methyl-1H-indole-5-carboxylic acid] |  | 360 | 2.2 |  |
| Cc1cc(OCCCc2c3n(c4c(-c5c(C)nn(C)c5C)c(Cl)ccc24)[C@H](C)CN(c2ccc4cc(C(=O)O)ccc4c2)C3=O)cc(C)c1Cl [Example 185, (R)-6-(7-Chloro-10-(3-(4-chloro-3,5-dimethylphenoxy)propyl)-4-methyl-1-oxo-6-(1,3,5-trimethyl-1H-pyrazol-4-yl)-3,4-dihydropyrazino[1,2-a]indol-2(1H)-yl)-2-naphthoic acid] |  | 2900 | 4.6 |  |
| Cc1cc(OCCCc2c3n(c4c(-c5c(C)ncnc5C)c(Cl)ccc24)[C@H](C)CN(c2cccc4c(C(=O)O)ccnc24)C3=O)cc(C)c1Cl [Example 225, 8-[(4R)-7-chloro-10-[3-(4-chloro-3,5-dimethyl-phenoxy)propyl]-6-(4,6-dimethylpyrimidin-5-yl)-4-methyl-1-oxo-3,4-dihydropyrazino[1,2-a]indol-2-yl]quinoline-4-carboxylic acid] |  | 3300 | < 1 |  |
| COCCn1ncc2c(C(=O)O)cc(N3CCCn4c(c(CCCOc5cc(C)c(Cl)c(C)c5)c5ccc(Cl)c(-c6c(C)nn(C)c6C)c54)C3=O)cc21 [Example 82, 6-[8-Chloro-11-[3-(4-chloro-3,5-dimethyl-phenoxy)propyl]-1-oxo-7-(1,3,5-trimethylpyrazol-4-yl)-4,5-dihydro-3H-[1,4]diazepino[1,2-a]indol-2-yl]-1-(2-methoxyethyl)indazole-4-carboxylic acid] |  | 4800 | < 1 |  |
| Cc1cc(OCCCc2c3n(c4c(-c5c(C)nn(C)c5C)c(Cl)ccc24)[C@H](C)[C@@H](C)N(c2ccc(C(=O)O)cc2)C3=O)cc(C)c1Cl [Example 142, 4-((3R,4R)-7-chloro-10-(3-(4-chloro-3,5-dimethylphenoxy)propyl)-3,4-dimethyl-1-oxo-6-(1,3,5-trimethyl-1H-pyrazol-4-yl)-3,4-dihydropyrazino[1,2-a]indol-2(1H)-yl)benzoic acid] |  | 7400 | 3.8 |  |
| Cc1cc(OCCCc2c3n(c4c(-c5c(C)nn(C)c5C)c(Cl)ccc24)[C@H](C)CN(c2cn(C)c4c(C#N)cc(C(=O)O)cc24)C3=O)cc(C)c1Cl [Example 244, (R)-3-(7-Chloro-10-(3-(4-chloro-3,5-dimethylphenoxy)propyl)-4-methyl-1-oxo-6-(1,3,5-trimethyl-1H-pyrazol-4-yl)-3,4-dihydropyrazino[1,2-a]indol-2(1H)-yl)-7-cyano-1-methyl-1H-indole-5-carboxylic acid] |  | 400 | < 1 |  |
| Cc1cc(OCCCc2c3n(c4c(-c5c(C)nn(C)c5C)c(Cl)ccc24)[C@H](C)[C@@H](C)NC3=O)cc(C)c1Cl [Example 140, (3R,4R)-7-chloro-10-(3-(4-chloro-3,5-dimethylphenoxy)propyl)-3,4-dimethyl-6-(1,3,5-trimethyl-1H-pyrazol-4-yl)-3,4-dihydropyrazino[1,2-a]indol-1(2H)-one] |  | 7600 | 79 |  |
| Cc1cc(OCCCc2c3n(c4c(-c5c(C)nn(C)c5C)c(Cl)ccc24)[C@H](C)CN(c2cn(C)c4c(C)c(C(=O)O)ccc24)C3=O)cc(C)c1Cl [Example 250, (R)-3-(7-Chloro-10-(3-(4-chloro-3,5-dimethylphenoxy)propyl)-4-methyl-1-oxo-6-(1,3,5-trimethyl-1H-pyrazol-4-yl)-3,4-dihydropyrazino[1,2-a]indol-2(1H)-yl)-1,7-dimethyl-1H-indole-6-carboxylic acid] |  | 480 | < 1 |  |
